One may read the IC50 as the concentration that gives 50% inhibition.

The text below walks through data of US20160222014A1, “COMPOUNDS FOR REGULATING FAK AND/OR SRC PATHWAYS” (ASANA BIOSCIENCES, LLC, priority 2013, published 2016).

Each structure is given as a SMILES string. Some results are limits rather than exact numbers.

Common to all, as to assay type: biochemical
For test [1], the target named is T1, Recombinant Src enzyme (Homo sapiens, UniProt P12931).
T1 construct: purchased Millipore 14-326; host or cells: Sf21 insect cells
Briefly: Src HTRF assay. The protocol: Enzyme assay buffer, supplements, and compounds were prepared as described in the FAK HTRF assay.
Recombinant Src enzyme expressed in Sf21 insect cells was obtained (Millipore, Cat No. 14-326, Lot # D8CN006U-K). A 35 μM stock was used at a final concentration of 5 nM in the assay.
Tyk2 synthetic peptide-Biotinylated-N-terminal tag-[…]
A custom made substrate, a Tyk2 synthetic peptide, biotinylated with an N-terminal tag was obtained (Biopeptide and Sigma, Cat. No. 14918001 VC80021). A 100 μM stock was used at a final concentration of 0.5 μM in the assay.
A 10 mM stock in 100 μL enzyme assay buffer pH7.4 was prepared freshly and used at a final concentration of 10 μM in the assay.
Dasatinib (Bristol-Myers Squibb)
The assay procedure was the same as discussed above.
(In general: Time-resolved FRET reads energy transfer from a long-lived donor to a nearby acceptor.)

For test [2], the target named is T2, AURKB (Aurora B) enzyme (Homo sapiens, UniProt Q96GD4).
T2 construct: purchased Invitrogen PVR 130
Briefly: Aurora B HTRF assay. The following applies: read-out: AuroraB IC50. The method, then:
AURKB (Aurora B) enzyme was obtained (Invitrogen, Cat No. PVR 130, Lot No. 857013J). A 8.64 μM stock was used at a final concentration 5 nM in the assay.
Lance@Ultera Ulight-PLK (Ser137) peptide substrate
Peptide substrate was obtained from Perkin Elmer (Lot#1629793, TRF0110-M). A 5 μM stock was used at a final concentration of 50 nM in the assay.
10 mM stock prepared freshly as above, used at a final concentration of 30 μM in assay.
The plate was covered with aluminum foil, put on a shaker and incubated 1 h at rt.
Reference: Pfizer aurora inhibitor PF-03814735 was procured from Selleckchem: Cat# S2725
Using stock Lance detection buffer, 1× Lance detection buffer was prepared. • 1. 10× lance detection buffer was diluted to 1×, mixed well and 100 μL was removed, and was used to substitute with antibody and EDTA (for a total of 2200 μL). • 2. 88 μL of […] EDTA was added from 500 mM stock. • 3. 14 μL Europium labeled antibody (LANCE@ Ultra EU-Anti-P-PLK(Ser 137), TRF0203-D, Lot No. 1630351, Perkin Elmer) was added from 625 nM stock; required concentration was 2 nM in the assay. • 4. The buffer well was mixed and 20 μL was transferred to the each well in the assay plate. • 5. The solutions were incubated for 1 h at rt. • 6. The plate was read using MET-HTRF® protocol using Pherastar equipment.

For test [3], the target named is T3, recombinant human FAK1 (Homo sapiens, UniProt Q05397).
T3 construct: fused on or other part: N-terminal 6xHis tag
Briefly: FAK1 HTRF assay. In a few lines:
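IC50 values derive from HTRF % inhibition (ratio 665/620 nm, Eu–anti-phosphotyrosine 0.1 nM, SA-APC 12 nM). The kinase step ran 45 min at room temperature, pairing 10 nM His-FAK1(692–end) from baculovirus with 0.5 μM gastrin Tyr87 biotin-peptide and a reagent at 10 μM final, pH 7.4. Compound dilutions began at 10 μM.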

T1 sequence (P12931 whole entry): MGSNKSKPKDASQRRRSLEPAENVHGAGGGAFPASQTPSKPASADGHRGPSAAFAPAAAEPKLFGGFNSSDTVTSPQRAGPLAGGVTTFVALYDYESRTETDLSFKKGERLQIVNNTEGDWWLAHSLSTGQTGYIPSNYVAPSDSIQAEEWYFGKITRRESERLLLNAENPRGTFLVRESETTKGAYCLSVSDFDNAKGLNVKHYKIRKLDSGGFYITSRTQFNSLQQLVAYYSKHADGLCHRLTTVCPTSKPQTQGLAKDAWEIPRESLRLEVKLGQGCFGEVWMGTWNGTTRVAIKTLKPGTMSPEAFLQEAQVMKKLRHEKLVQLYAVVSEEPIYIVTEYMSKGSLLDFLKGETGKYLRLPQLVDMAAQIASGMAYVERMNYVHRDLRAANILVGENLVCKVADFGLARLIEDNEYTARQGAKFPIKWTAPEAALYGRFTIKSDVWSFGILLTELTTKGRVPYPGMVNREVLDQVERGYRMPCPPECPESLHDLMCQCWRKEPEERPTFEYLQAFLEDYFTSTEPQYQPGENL
T2 sequence (Q96GD4 whole entry): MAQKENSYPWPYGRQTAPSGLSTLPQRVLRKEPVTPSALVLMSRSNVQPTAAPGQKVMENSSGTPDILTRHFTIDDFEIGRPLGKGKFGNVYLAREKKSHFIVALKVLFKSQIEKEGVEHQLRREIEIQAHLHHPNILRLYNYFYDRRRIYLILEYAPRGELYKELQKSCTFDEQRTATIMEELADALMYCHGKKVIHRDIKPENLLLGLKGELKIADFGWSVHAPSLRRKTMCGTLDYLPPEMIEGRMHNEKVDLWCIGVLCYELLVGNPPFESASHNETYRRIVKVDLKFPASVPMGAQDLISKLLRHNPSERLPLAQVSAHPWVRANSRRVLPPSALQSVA
T3 sequence (Q05397 422-680 limits assumed): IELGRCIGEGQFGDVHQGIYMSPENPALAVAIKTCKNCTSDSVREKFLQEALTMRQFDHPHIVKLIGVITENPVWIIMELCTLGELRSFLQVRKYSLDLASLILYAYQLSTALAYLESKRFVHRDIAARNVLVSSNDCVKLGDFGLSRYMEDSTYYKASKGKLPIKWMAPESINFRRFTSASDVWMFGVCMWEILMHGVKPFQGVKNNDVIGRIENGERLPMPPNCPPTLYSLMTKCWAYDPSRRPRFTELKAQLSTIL

With `CC(=O)Nc1ccc(Nc2cc3c(cn2)cnn3S(=O)(=O)c2cccc3cccnc23)cc1` [Example 315], the figures for the IC50 in test [1] and in test [2] were more than 1 µM and less than 0.02 µM, respectively.

In the case of `COc1cc(N2CCNCC2)ccc1Nc1cc2c(ccn2Cc2cccnc2N(C)S(C)(=O)=O)cn1` [Example 366], the IC50 in test [1] and in test [2] was more than 1 µM each time.

With `CC1(C)CN(S(=O)(=O)c2ccccc2C#N)c2cc(Nc3ccc(N4CCNCC4)cc3)ncc21` [Example 532], the IC50 in test [1] and in test [2] was more than 1 µM each time.

In the case of `COc1cccc(Nc2ncc3ccn(S(=O)(=O)c4ccccc4C#N)c3n2)c1` [Example 178], the IC50 in test [1] was more than 1 µM; in test [2] it was less than 0.02 µM.

On to `COc1cc(N2CCN[C@@H](C)C2)ccc1Nc1ncc2ccn(Cc3cccnc3N(C)S(C)(=O)=O)c2n1` [Example 629], for which the IC50 in test [1] and in test [2] was more than 1 µM in each case.

For `CN(c1ncccc1Cn1ccc2cnc(Nc3ncccn3)nc21)S(C)(=O)=O` [Example 227], the IC50 in test [3] and in test [1] was more than 1 µM in each case.

Take `Cc1nn(S(=O)(=O)c2ccccc2OC(F)(F)F)c2cc(Nc3ccc4c(c3)CCC(=O)N4)ncc12` [Example 90]: the figures for the IC50 in test [1] and in test [2] were more than 1 µM and less than 0.02 µM, respectively.

As for `CN(C)C1CCN(c2ccc(Nc3nc4c(ccn4Cc4cccnc4N(C)S(C)(=O)=O)cc3C#N)cc2)CC1` [Example 785], the IC50 in test [3] and in test [1] was more than 1 µM each time.

Take `COc1cc(N2CCNCC2)ccc1Nc1ncc2ccn(S(=O)(=O)c3cc(C)cc4cccnc34)c2n1` [Example 360]: the IC50 in test [3] is less than 0.02 µM; in test [1], more than 1 µM.

As for `O=C1CCc2cc(Nc3ncc4ccn(S(=O)(=O)c5cccc(OC(F)(F)F)c5)c4n3)ccc2N1` [Example 45], the IC50 in test [3] and in test [1] was more than 1 µM in each case.

Take `CN(c1ncccc1Cn1cc(C(N)=O)c2cnc(Nc3ccc(N4CCNCC4)cc3)nc21)S(C)(=O)=O` [Example 734]: the IC50 in test [3] and in test [1] was more than 1 µM each time.

Take `O=c1[nH]c2ccc(Nc3ncc4ccn(S(=O)(=O)c5ccccc5OC(F)(F)F)c4n3)cc2[nH]1` [Example 93]: the IC50 in test [1] is more than 1 µM; in test [2], less than 0.02 µM.

Regarding `Cc1ccc(N(C)S(C)(=O)=O)c(Cn2ccc3cnc(Nc4ccc5c(c4)CC(=O)N5)nc32)c1` [Example 786], the IC50 was less than 0.02 µM in test [3] and more than 1 µM in test [1].

On to `Cc1cc(Nc2cc3c(cn2)cnn3S(=O)(=O)c2cccc3cccnc23)ccc1N1CCOCC1` [Example 374], for which the IC50 was less than 0.02 µM in test [3] and more than 1 µM in test [1].

With `C[C@H]1CN(c2ccc(Nc3ncc4ccn(Cc5ccccc5N(C)S(C)(=O)=O)c4n3)cc2)CCN1C` [Example 491], the IC50 in test [3] and in test [1] was less than 0.02 µM in each case.

Consider `COc1cc(N2CCN(C)CC2)ccc1Nc1ncc2ccn(Cc3ccccc3N(C)S(C)(=O)=O)c2n1` [Example 424], for which the IC50 in test [3] was less than 0.02 µM; in test [1], more than 1 µM.

In the case of `O=C1CCc2cc(Nc3ncc4cnn(S(=O)(=O)c5cccc6cccnc56)c4n3)ccc2N1` [Example 228], the IC50 in test [3] and in test [1] was less than 0.02 µM each time.

With `COc1cccc(Nc2ncc3ccn(Cc4ccccc4N(CCN4CCNCC4)S(C)(=O)=O)c3n2)c1` [Example 583], the IC50 in test [3] and in test [1] was more than 1 µM each time.

With `CNS(=O)(=O)c1cccc(Cn2ccc3cnc(Nc4ccc5c(c4)CCC(=O)N5)nc32)c1` [Example 60], the IC50 in test [1] was more than 1 µM; in test [2], less than 0.02 µM.

For the molecule `O=S(=O)(c1cccc2cccnc12)n1ncc2cnc(Nc3ccc(N4CC5CC4CN5)cc3)cc21` (stereo not shown) [Example 383], the IC50 in test [1] is more than 1 µM; in test [2] it was less than 0.02 µM.

For `CC1(C)CN(c2ccccn2)c2nc(Nc3ccc4[nH]cc(C5=CCNCC5)c4c3)ncc21` [Example 713], the results for the IC50 in test [3] and in test [1] were less than 0.02 µM and more than 1 µM, respectively.

For `CN(C)C1CCN(c2ccc(Nc3cc4c(cn3)C(C)(C)CN4S(=O)(=O)c3cccc4cccnc34)cc2)CC1` [Example 611], the values for the IC50 in test [3] and in test [1] were less than 0.02 µM and more than 1 µM, respectively.

As for `COc1cc(N2CCC(N(C)C)CC2)ccc1Nc1ncc2ccn(Cc3ccccc3N(C)S(C)(=O)=O)c2n1` [Example 628], the IC50 in test [1] and in test [2] was more than 1 µM each time.

As to `O=S(=O)(c1cccc2cccnc12)n1ccc2cnc(Nc3ccc(N4CCNCC4)cc3OC3CCC3)cc21` [Example 362], the IC50 in test [3] and in test [1] was more than 1 µM each time.

Regarding `CN(c1ncccc1Cn1cc(C#N)c2cnc(Nc3ccc(N4CCNCC4)cc3)nc21)S(C)(=O)=O` [Example 732], the IC50 in test [3] and in test [1] was more than 1 µM each time.

Consider `O=S(=O)(c1cc(Cl)ccc1Cl)N1CC2(CC2)c2cnc(Nc3ccc(N4CCNCC4)cc3)nc21` [Example 510], for which the IC50 in test [1] and in test [2] was more than 1 µM in each case.

As to `C[C@H]1CN(c2ccc(Nc3ncc4ccn(Cc5cccnc5N(C)S(C)(=O)=O)c4n3)nc2)CCN1` [Example 585, (S)—N-methyl-N-(3-((2-((5-(3-methylpiperazin-1-yl)pyridin-2-yl)amino)-7H-pyrrolo[2,3-d]pyrimidin-7-yl)methyl)pyridin-2-yl)methanesulfonamide], the IC50 in test [3] and in test [1] was more than 1 µM throughout.

With `CC(=O)N(C)c1ccccc1Cn1ccc2cnc(Nc3ccc(N4CCN[C@H](C)C4)cc3)nc21` [Example 787], the IC50 in test [3] and in test [1] was more than 1 µM in each case.

With `COc1cc(N2CCC(N(C)C)CC2)ccc1Nc1ncc2ccn(Cc3cccnc3N(C)S(C)(=O)=O)c2n1` [Example 634], the IC50 in test [1] and in test [2] was more than 1 µM each time.

For `COc1cc(N2CCN(C)CC2)ccc1Nc1cc2c(ccn2S(=O)(=O)c2ccccc2C#N)cn1` [Example 493], the IC50 was less than 0.02 µM in test [3] and more than 1 µM in test [1].

For the molecule `COc1cc(N2CCN(C)CC2)ccc1Nc1cc2c(ccn2S(=O)(=O)c2cccc3cccnc23)cn1` [Example 407], the IC50 in test [3] is less than 0.02 µM; in test [1], more than 1 µM.

Take `O=S(=O)(c1cccc2cccnc12)n1ccc2cnc(Nc3ccc(N4CCNCC4)cc3Cl)nc21` [Example 418]: the IC50 in test [3] was less than 0.02 µM; in test [1] it was more than 1 µM.

With `CN(c1ncccc1Cn1ccc2cnc(Nc3ccc4c(c3)NC(=O)CC4)nc21)S(C)(=O)=O` [Example 209], the IC50 in test [3] and in test [1] was less than 0.02 µM throughout.

On to `N#Cc1ccccc1Nc1ncc2ccn(S(=O)(=O)c3cccc4cccnc34)c2n1` [Example 359], for which the IC50 in test [3] is less than 0.02 µM; in test [1], more than 1 µM.

`O=C1CCc2cc(Nc3ncc4ccn(S(=O)(=O)c5cccc6ccccc56)c4n3)ccc2N1` [Example 223]: the IC50 in test [3] and in test [1] was less than 0.02 µM throughout.

As for `CC(=O)Nc1ccc(S(=O)(=O)n2ccc3cnc(Nc4ccc(CC#N)cc4)nc32)cc1` [Example 183], the IC50 in test [3] and in test [1] was more than 1 µM each time.

With `N#Cc1ccccc1S(=O)(=O)n1ccc2cnc(Nc3ccc(N4CCC(O)CC4)cc3)cc21` [Example 414], the IC50 in test [3] is less than 0.02 µM; in test [1], more than 1 µM.

As for `CN(C)C1CCN(c2ccc(Nc3ncc4c(n3)N(c3ccccc3NS(C)(=O)=O)CC4(C)C)cc2)CC1` [Example 784], the IC50 in test [3] and in test [1] was more than 1 µM in each case.
